What was measured:
[1] = biological target: T1, human recombinant norepinephrine transporter (Homo sapiens, UniProt P23975); assay: Norepinephrine transporter reuptake inhibition assay; format: cell-based; conditions: 100 nM; MDCK cells with human norepinephrine transporter; [3H]Norepinephrine uptake; read-out: Inhibition % at 100 nM NE reuptake
T1 construct: expressed in transfected cells; host or cells: MDCK
Description: Norepinephrine Transporter Reuptake Inhibition Assay
Norepinephrine transporter reuptake inhibition assay used the method described by Galli A. et al., J Exp Biol., 1995, 198, p 2197˜2212.
MDCK cells with stably expressed human recombinant norepinephrine transporter were plated one day. Test compounds were pre-incubated with cells (2×10^5/ml) in modified Tris-HEPES buffer pH 7.1 for 20 minutes at 25° C. and then they were incubated for additional 10 minutes after 25 nM of [^3H]Norepinephrine was added. A lysate was obtained from solubilized cells and the filtered lysate was counted to determine [^3H]Norepinephrine uptake. Reduction of [^3H]Norepinephrine uptake by 50 percent or more (≧50%) relative to 10 μM desipramine indicates significant inhibitory activity. Compounds were screened at 10, 1, 0.1, 0.01 and 0.001 μM to determine their IC50s.

mice [2] = assay: Marble burying test; format: in vivo; conditions: 30ip, 30 min after treatment, vs control group
From the text: The Marble burying test is a screening tool for putative anxiolytics. In this test, control mice naturally bury glass marbles in the cage bedding and the administration of anxiolytic compounds, including Diazepam, reduces the number of buried marbles. Positive compounds in the marble burying test including selective serotonin reuptake inhibitor may be especially beneficial to obsessive-compulsive disorder.
A group of mice was intraperitoneally treated with test compound dissolved in 30% PEG400 with an injection volume of 10 ml/kg. The group treated with only 30% PEG400 served as a control group. Thirty minutes after the treatment, the animals were individually placed in a polycarbonate cage which was same as used for animal housing with an open top located within a quiet room. Each cage consisted of ⅛ inch corn bedding 5 cm deep. Twenty four clean glass marbles (15 mm diameter) were evenly spaced in four rows of six on top of the bedding. Each mouse was left in the cage for 30 minutes and the number of marbles buried (buried more than ½ or ⅔) was counted. The potent ability of the compounds was determined as percent value of reduction in the number of marbles buried comparing to the control group.

mice [3] = assay: Acetic acid induced writhing test (AA writhing test); format: in vivo; conditions: 30sc, 0.8% acetic acid i.p. 30 min later, vs control group
From the text: Specially the results of Marble burying test (MB) in mice as noted in Table 3 show the compounds of the invention are related to the treatment of anxiety. Acetic Acid Induced Writhing Test (AA Writhing Test)
The Acetic acid-induced writhing test is a well-established nociceptive test using a chemical stimulus. Although several animal models of nociceptive tests have been developed to examine and compare the anti-nociceptive effects of different drugs, the anti-nociceptive effects of antidepressants appear to be test-dependent. Indeed, the acetic acid-induced writhing test is more sensitive to antidepressants than other tests using thermal, mechanical or electrical stimuli.
The animals were subcutaneously treated with the test compound with an injection volume of 10 ml/kg. The group treated with 30% PEG400 or saline served as a control group. Thirty minutes later, the mice were intraperitoneally treated with 0.8% (v/v) acetic acid. Each mouse was then placed in a cage for individual observation. The writhing numbers for 10 minutes were counted. The writhe is operationally defined as a contraction of the abdomen followed by stretching of the hind limbs. The potent ability of the compounds was determined as percent value of reduction in the number of writhing comparing to the control group.

[4] = biological target: T2, human serotonin transporter (Homo sapiens, UniProt P31645); assay: Serotonin transporter reuptake inhibition assay; format: cell-based; conditions: HEK293; 100 nM; HEK-293 cells with human serotonin transporter; [3H]Serotonin uptake; read-out: Inhibition % at 100 nM 5-HT reuptake
T2 construct: expressed in transfected cells; host or cells: HEK-293
T2 sequence (P31645 whole entry): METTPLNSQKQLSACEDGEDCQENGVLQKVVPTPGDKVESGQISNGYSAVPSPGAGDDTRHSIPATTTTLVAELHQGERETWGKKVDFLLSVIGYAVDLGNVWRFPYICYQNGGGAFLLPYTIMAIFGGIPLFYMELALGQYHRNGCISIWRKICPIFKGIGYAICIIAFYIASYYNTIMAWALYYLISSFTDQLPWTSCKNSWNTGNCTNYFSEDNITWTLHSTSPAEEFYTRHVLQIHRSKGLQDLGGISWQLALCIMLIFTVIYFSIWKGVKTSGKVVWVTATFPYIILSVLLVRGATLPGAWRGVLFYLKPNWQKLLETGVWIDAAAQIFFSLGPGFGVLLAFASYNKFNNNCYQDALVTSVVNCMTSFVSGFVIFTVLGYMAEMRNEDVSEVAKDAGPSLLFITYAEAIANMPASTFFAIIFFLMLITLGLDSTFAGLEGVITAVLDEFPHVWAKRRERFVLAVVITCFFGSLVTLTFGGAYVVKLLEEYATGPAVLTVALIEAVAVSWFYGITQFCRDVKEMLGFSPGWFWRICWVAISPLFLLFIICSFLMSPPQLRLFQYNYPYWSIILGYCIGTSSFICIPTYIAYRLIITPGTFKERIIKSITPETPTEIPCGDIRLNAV
Description: Serotonin Transporter Reuptake Inhibition Assay
The method to test the ability of compounds to inhibit transporters from reuptake of serotonin followed Gu H. et al., J Biol. Chem., 1994, 269, p […].
The recombinant HEK-293 cells with human serotonin transporter were plated. Test compounds were pre-incubated with cells (2×10^5/ml) in modified Tris-HEPES buffer pH 7.1 for 20 minutes at 25° C. and then they were incubated for additional 10 minutes after 65 nM of [^3H]Serotonin was added. Bound cells were filtered and counted to determine [^3H]Serotonin uptake. Reduction of [^3H]Serotonin uptake by 50 percent or more (≧50%) relative to 10 μM fluoxetine indicates significant inhibitory activity. Compounds were screened at 10, 1, 0.1, 0.01 and 0.001 μM for IC50s.

mice [5] = assay: Forced swimming test in mice (FST); format: in vivo; conditions: Mus musculus, 0.5 h, 30ip, 30 min after administration, vs control group, read-out: Reduction % at 30ip (duration of immobility)
Description: Forced Swimming Test in Mice (FST)
The Forced swimming test is an animal model based on the rodent's behavioral repertoire for screening drugs with potential antidepressant activity. As in several other models used for this goal, an uncontrollable stress stimulus produces behavioral changes that are sensitive to antidepressant treatment.
The mice were intraperitoneally treated with the test compound with an injection volume of […]. The group treated with 30% PEG400 served as a control group. Thirty minutes following administration, mice were individually forced to swim in a transparent glass vessel (14 cm high, 11.5 cm in diameter) filled with 10 cm of water at 25° C. The total duration of immobility (second) was measured during the last 4 minutes of a single 6-min test session. Mice were considered immobile when they made no further attempts to escape other than the movements necessary to keep their heads above the water. The potent ability of the compounds was determined as percent value of reduction in the duration of immobility comparing to the control group.

[6] = biological target: T3, human recombinant dopamine transporter (Homo sapiens, UniProt Q01959); assay: Dopamine transporter reuptake inhibition assay; format: cell-based; conditions: 100 nM; CHO-K1 cells with human dopamine transporter; [3H]Dopamine uptake; read-out: Inhibition % at 100 nM DA reuptake
T3 construct: expressed in transfected cells; host or cells: CHO-K1
T3 sequence (Q01959 whole entry): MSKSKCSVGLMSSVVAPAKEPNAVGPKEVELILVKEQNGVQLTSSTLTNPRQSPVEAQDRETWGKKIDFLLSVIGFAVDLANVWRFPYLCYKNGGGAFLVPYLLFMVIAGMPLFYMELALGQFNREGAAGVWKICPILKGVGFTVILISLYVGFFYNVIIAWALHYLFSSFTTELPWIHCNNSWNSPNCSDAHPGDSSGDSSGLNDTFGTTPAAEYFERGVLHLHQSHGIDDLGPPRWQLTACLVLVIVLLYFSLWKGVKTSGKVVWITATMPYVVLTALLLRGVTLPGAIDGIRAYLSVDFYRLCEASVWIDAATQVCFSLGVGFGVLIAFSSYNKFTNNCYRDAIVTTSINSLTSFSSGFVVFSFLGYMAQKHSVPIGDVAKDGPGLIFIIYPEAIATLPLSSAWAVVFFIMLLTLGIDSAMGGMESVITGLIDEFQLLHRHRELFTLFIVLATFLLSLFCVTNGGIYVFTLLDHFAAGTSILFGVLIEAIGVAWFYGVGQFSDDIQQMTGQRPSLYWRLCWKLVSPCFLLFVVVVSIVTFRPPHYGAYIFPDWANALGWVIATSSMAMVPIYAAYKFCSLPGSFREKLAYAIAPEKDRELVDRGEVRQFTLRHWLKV
Description: Dopamine Transporter Reuptake Inhibition Assay
The assay followed the method modified from Pristupa Z. B. et al., Mol. Pharmacol., 1994, p 125˜135.
CHO-K1 cells with human recombinant dopamine transporter were plated. Test compounds were pre-incubated with cells (4×10^5/ml) in modified Tris-HEPES buffer pH 7.1 for 20 minutes at 25° C. and then they were incubated for additional 10 minutes after 50 nM of [^3H]Dopamine was added. A lysate is obtained from solubilized cells and counted to determine [^3H]Dopamine uptake. Reduction of [^3H]Dopamine uptake by 50 percent or more (≧50%) relative to 10 μM nomifensine indicates significant inhibitory activity. Compounds were tested at 10, 1, 0.1, 0.01 and 0.001 μM for IC50s.

T1 sequence (P23975 whole entry): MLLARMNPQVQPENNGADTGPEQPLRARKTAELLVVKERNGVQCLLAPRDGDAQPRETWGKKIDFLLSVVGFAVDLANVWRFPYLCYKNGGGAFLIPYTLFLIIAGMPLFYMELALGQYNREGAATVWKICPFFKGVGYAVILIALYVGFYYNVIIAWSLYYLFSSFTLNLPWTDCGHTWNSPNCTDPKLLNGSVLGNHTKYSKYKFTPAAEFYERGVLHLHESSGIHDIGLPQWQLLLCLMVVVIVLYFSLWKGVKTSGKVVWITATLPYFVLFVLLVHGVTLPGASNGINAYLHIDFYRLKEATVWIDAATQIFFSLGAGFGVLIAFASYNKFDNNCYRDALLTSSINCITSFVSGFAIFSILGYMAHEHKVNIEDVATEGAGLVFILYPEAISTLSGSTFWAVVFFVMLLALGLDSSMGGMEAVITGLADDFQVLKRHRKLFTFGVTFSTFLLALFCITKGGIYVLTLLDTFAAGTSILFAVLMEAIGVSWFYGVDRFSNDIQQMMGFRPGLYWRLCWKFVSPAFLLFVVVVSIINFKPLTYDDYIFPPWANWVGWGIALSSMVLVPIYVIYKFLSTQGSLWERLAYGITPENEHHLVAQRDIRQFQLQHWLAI

SMILES | inhibition at 0.1 µM [1] [%] | Reduction % at 30ip (number of marbles buried) (mice [2]) [%] | Reduction % at 30sc (number of writhing) (mice [3]) [%] | inhibition at 0.1 µM [4] [%] | inhibition in vivo at 30 mg/kg (mice [5]) [%] | inhibition at 0.1 µM [6] [%]
Cc1nnn([C@@H](c2ccc3ccccc3c2)[C@@H]2CCCNC2)n1 [Example 12, (3R)-3-[(R)-(5-methyl-2H-tetrazol-2-yl)(naphthalen-2-yl)methyl]piperidine] | 90 | 91.8 | 50.5 | 83 | 9.7 | 92
Clc1ccc([C@@H]([C@@H]2CCCNC2)n2ncnn2)cc1Cl [Example 15, (3R)-3-[(R)-(3,4-dichlorophenyl)(2H-tetrazol-2-yl)methyl]piperidine] | 98 | 75.3 | 55.3 | 75 | 96.5 | 99
Fc1ccc2cc([C@H]([C@H]3CCCNC3)n3ncnn3)ccc2c1 [Example 71] | 46 | 86.0 | 48.7 | 92 | 54 | 54
Fc1ccc2cc([C@@H]([C@@H]3CCCNC3)n3ncnn3)ccc2c1 [Example 83, (3R)-3-[(R)-(6-fluoronaphthalen-2-yl)(2H-tetrazol-2-yl)methyl]piperidine] | 78 | 83.7 | 84.1 | 96 | 51.8 | 66
